Measured values from patent US10947210B2 (priority 2015, dated 2021).

Target: HCV RNA-dependent RNA polymerase (NS5B) (Hepatitis C virus genotype 1b (isolate BK) (HCV), UniProt P26663)
Assay: RNA-Dependent RNA HCV NS5B (polymerase) Assay and IC50 Determination
Type: biochemical
Details: purified HCV NS5B polymerase, polyA:U16 substrate, 32P-UTP incorporation; read-out: IC50
Method: RNA-Dependent RNA HCV NS5B (polymerase) Assay and IC50 Determination.
The reaction mixtures consisted of 50 mM Hepes-KOH, pH 7.5, 5 mM MgCl2, 5 mM DTT, 2% glycerol, 0.01% Triton® X-100, 0.5 uM polyA:U16 substrate, purified HCV RNA-dependent RNA polymerase, 10 μM UTP, and ^32P-UTP (Perkin Elmer). The reaction mixtures incubated at 30° C. for 60 minutes, and then filtered through Zeta probe membrane (BioRad). The filter was washed with 5×SSC (75 mM sodium citrate, pH 7 and 750 mM NaCl), and the radiolabeled RNA products were quantitated by microbeta (Perkin Elmer). For IC50 determination, different concentrations of inhibitors were added to the polymerase reaction mixtures, and incubated at 37° C. for 60 minutes. IC50 values were determined using GraFit (Erithaus software).
Table 1 presents IC50 data obtained using the biochemical assay to test representative compounds. Data are presented as follows: “+++” means <0.1 μM; “++” means ≥0.1 μM but <1.0 μM; “+” means ≥1.0 μM.

Chain of HCV RNA-dependent RNA polymerase (NS5B) (P26663 2420-3010): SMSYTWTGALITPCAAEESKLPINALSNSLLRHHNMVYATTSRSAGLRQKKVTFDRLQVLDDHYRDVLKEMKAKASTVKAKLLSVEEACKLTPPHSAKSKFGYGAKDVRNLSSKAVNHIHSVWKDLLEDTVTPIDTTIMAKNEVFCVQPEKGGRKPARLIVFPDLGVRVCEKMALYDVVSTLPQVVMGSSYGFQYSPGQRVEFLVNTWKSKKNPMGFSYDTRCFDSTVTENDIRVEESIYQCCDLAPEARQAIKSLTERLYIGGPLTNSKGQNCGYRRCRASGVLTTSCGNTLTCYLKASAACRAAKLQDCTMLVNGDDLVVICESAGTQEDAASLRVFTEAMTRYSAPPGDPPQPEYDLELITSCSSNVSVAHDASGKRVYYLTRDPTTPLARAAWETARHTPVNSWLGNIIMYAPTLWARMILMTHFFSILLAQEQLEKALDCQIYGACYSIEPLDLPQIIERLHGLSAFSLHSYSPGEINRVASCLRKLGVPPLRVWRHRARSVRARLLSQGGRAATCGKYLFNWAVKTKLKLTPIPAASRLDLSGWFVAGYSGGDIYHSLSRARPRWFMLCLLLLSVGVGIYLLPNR

Row | SMILES | IC50 [µM]
1 | CNC(=O)c1c(-c2ccc(F)cc2)oc2cc(N(CC(=O)NC3(C(=O)NCc4cccc(C(=O)C=C(O)C(=O)O)c4)CC3)S(C)(=O)=O)c(C3CC3)cc12 [Compound 09-14D, 4-[3-({[1-(2-{[5-Cyclopropyl-2-(4-fluoro-phenyl)-3-methylcarbamoyl-benzofuran-6-yl]-methanesulfonyl-amino}-acetylamino)-cyclopropanecarbonyl]-amino}-methyl)-phenyl]-2-hydroxy-4-oxo-but-2-enoic Acid] | > 1
2 | CNC(=O)c1c(-c2ccc(F)cc2)oc2cc(N(CCCCCOCCCCC(=O)O)S(C)(=O)=O)c(C3CC3)cc12 [Compound 28-8A, 5-((5-(N-(5-cyclopropyl-2-(4-fluorophenyl)-3-(methylcarbamoyl)benzofuran-6-yl)-methylsulfonamido)-pentyl)-oxy)-pentanoic Acid] | < 0.1
3 | CNC(=O)c1c(-c2ccc(F)cc2)oc2cc(N(CCOCCOCCOC3(C(=O)OC(C)(C)C)CCCC3)S(C)(=O)=O)c(C3CC3)cc12 [Compound 26-6A] | > 1
4 | CNC(=O)c1c(-c2ccc(F)cc2)oc2cc(N(CCOCCOCc3ccnc(Cl)c3)S(C)(=O)=O)c(C3CC3)cc12 [Compound 19-8A, 6-({2-[2-(2-Chloro-pyridin-4-ylmethoxy)-ethoxy]-ethyl}-methanesulfonyl-amino)-5-cyclopropyl-2-(4-fluoro-phenyl)-benzofuran-3-carboxylic Acid Methylamide] | < 0.1
5 | CNC(=O)c1c(-c2ccc(F)cc2)oc2cc(N(CCOCCOCc3ccc(C(=O)OCc4ccccc4)cc3)S(C)(=O)=O)c(C3CC3)cc12 [Compound 06-8B7, 4-[2-(2-{[5-Cyclopropyl-2-(4-fluoro-phenyl)-3-methylcarbamoyl-benzofuran-6-yl]-methanesulfonyl-amino}-ethoxy)-ethoxymethyl]-benzoic Acid Benzyl Ester] | 0.1 to 1
6 | CNC(=O)c1c(-c2ccc(F)cc2)oc2cc(N(CCOCCOCCOCCCc3cccc(C(=O)CC(=O)C(=O)O)c3)S(C)(=O)=O)c(C3CC3)cc12 [Compound 30-10, 4-[3-(3-{2-[2-(2-{[5-Cyclopropyl-2-(4-fluoro-phenyl)-3-methylcarbamoyl-benzofuran-6-yl]-methanesulfonyl-amino}-ethoxy)-ethoxy]-ethoxy}-propyl)-phenyl]-2,4-dioxo-butyric acid] | > 1
7 | CCCCCOC(=O)c1ccc(COCCOCCN(c2cc3oc(-c4ccc(F)cc4)c(C(=O)NC)c3cc2C2CC2)S(C)(=O)=O)cc1 [Compound 06-8B4, 4-[2-(2-{[5-Cyclopropyl-2-(4-fluoro-phenyl)-3-methylcarbamoyl-benzofuran-6-yl]-methanesulfonyl-amino}-ethoxy)-ethoxymethyl]-benzoic Acid Pentyl Ester] | 0.1 to 1
8 | CNC(=O)c1c(-c2ccc(F)cc2)oc2cc(N(CCOCCOCCOc3cccc(C(=O)O)c3)S(C)(=O)=O)c(C3CC3)cc12 [Compound 14-7B, 3-{2-[2-(2-{[5-Cyclopropyl-2-(4-fluoro-phenyl)-3-methylcarbamoyl-benzofuran-6-yl]-methanesulfonyl-amino}-ethoxy)-ethoxy]-ethoxy}-benzoic Acid] | 0.1 to 1
9 | CNC(=O)c1c(-c2ccc(F)cc2)oc2cc(N(CCOCCOCCOCCOCCOCCOCc3ccc(C(=O)O)cc3)S(C)(=O)=O)c(C3CC3)cc12 [Compound 30-13, 4-{2-[2-(2-{2-[2-(2-{[5-Cyclopropyl-2-(4-fluoro-phenyl)-3-methylcarbamoyl-benzofuran-6-yl]-methanesulfonyl-amino}-ethoxy)-ethoxy]-ethoxy}-ethoxy)-ethoxy]-ethoxymethyl}-benzoic acid] | > 1
10 | CCOC(=O)c1ccc(OCCCCCCN(c2cc3oc(-c4ccc(F)cc4)c(C(=O)NC)c3cc2C2CC2)S(C)(=O)=O)cc1 [Compound 15-7, 4-(6-{[5-Cyclopropyl-2-(4-fluoro-phenyl)-3-methylcarbamoyl-benzofuran-6-yl]-methanesulfonyl-amino}-hexyloxy)-benzoic Acid Ethyl Ester] | 0.1 to 1
11 | CNC(=O)c1c(-c2ccc(F)cc2)oc2cc(N(CCOCCOCc3ccc(C(=O)O)c(N)c3)S(C)(=O)=O)c(C3CC3)cc12 [Compound 29-10, 2-Amino-4-[2-(2-{[5-cyclopropyl-2-(4-fluoro-phenyl)-3-methylcarbamoyl-benzofuran-6-yl]-methanesulfonyl-amino}-ethoxy)-ethoxymethyl]-benzoic Acid] | 0.1 to 1
12 | CCOC(=O)CCOCCOCCOCCN(c1cc2oc(-c3ccc(F)cc3)c(C(=O)NC)c2cc1C1CC1)S(C)(=O)=O [Compound 30-3, 3-{2-[2-(2-{[5-Cyclopropyl-2-(4-fluoro-phenyl)-3-methylcarbamoyl-benzofuran-6-yl]-methanesulfonyl-amino}-ethoxy)-ethoxy]-ethoxy}-propionic acid ethyl ester] | > 1
13 | CNC(=O)c1c(-c2ccc(F)cc2)oc2cc(N(CCOCCOCCOCc3ccccc3C(=O)O)S(C)(=O)=O)c(C3CC3)cc12 [Compound 06-7D, 2-{2-[2-(2-{[5-Cyclopropyl-2-(4-fluoro-phenyl)-3-methylcarbamoyl-benzofuran-6-yl]-methanesulfonyl-amino}-ethoxy)-ethoxy]-ethoxymethyl}-benzoic Acid] | 0.1 to 1
14 | CNC(=O)c1c(-c2ccc(F)cc2)oc2cc(N(CCCCCOCCCC(C)C(=O)O)S(C)(=O)=O)c(C3CC3)cc12 (stereo not drawn) [Compound 28-8B, 5-(5-{[5-Cyclopropyl-2-(4-fluoro-phenyl)-3-methylcarbamoyl-benzofuran-6-yl]-methanesulfonyl-amino}-pentyloxy)-2-methyl-pentanoic Acid] | < 0.1
15 | CNC(=O)c1c(-c2ccc(F)cc2)oc2cc(N(CCOCCOCCc3ccccc3C(=O)OC)S(C)(=O)=O)c(C3CC3)cc12 [Compound 11-5A, 2-{2-[2-(2-{[5-Cyclopropyl-2-(4-fluoro-phenyl)-3-methylcarbamoyl-benzofuran-6-yl]-methanesulfonyl-amino}-ethoxy)-ethoxy]-ethyl}-benzoic Acid Methyl Ester] | 0.1 to 1
16 | CNC(=O)c1c(-c2ccc(F)cc2)oc2cc(N(CCOCCOCCOC(C)(C)C(=O)OC(C)(C)C)S(C)(=O)=O)c(C3CC3)cc12 [Compound 26-6B, 2-{2-[2-(2-{[5-Cyclopropyl-2-(4-fluoro-phenyl)-3-methylcarbamoyl-benzofuran-6-yl]-methanesulfonyl-amino}-ethoxy)-ethoxy]-ethoxy}-2-methyl-propionic Acid Tert-butyl Ester] | > 1
17 | CNC(=O)c1c(-c2ccc(F)cc2)oc2cc(N(CC(=O)NCC(=O)NCCCCC(=O)O)S(C)(=O)=O)c(C3CC3)cc12 [Compound 10-4A, 5-[2-(2-{[5-Cyclopropyl-2-(4-fluoro-phenyl)-3-methylcarbamoyl-benzofuran-6-yl]-methanesulfonyl-amino}-acetylamino)-acetylamino]-pentanoic Acid] | > 1
18 | CNC(=O)c1c(-c2ccc(F)cc2)oc2cc(N(CCOCCCCCOCC(=O)O)S(C)(=O)=O)c(C3CC3)cc12 [Compound 27-9A, [5-(2-{[5-Cyclopropyl-2-(4-fluoro-phenyl)-3-methylcarbamoyl-benzofuran-6-yl]-methanesulfonyl-amino}-ethoxy)-pentyloxy]-acetic Acid] | 0.1 to 1
